This is an account of results in US11912719B2, “Substituted isoquinolines as rock kinase inhibitors” (Cervello Therapeutics LLC, priority 2018, dated 2024).

Assay type in all cases: biochemical
Test [1] addresses T1, human ROCK1 catalytic domain (Homo sapiens, UniProt Q13464).
T1 construct: GST; purchased Carna BioSciences 01-109
Kind of test: fluorescence coupling (TR-FRET) enzymatic assay, ROCK1. Conditions: 4 nM enzyme, 4 μM ATP, 50 nM Ulight-CREBTide, one hour room temperature; read-out: ROCK1 IC50. On the procedure: (§1) Briefly, compounds of the present invention were solubilized in DMSO and a series of 12, three-fold serial dilutions were made for each compound in 2.5% DMSO. The initial starting concentration for the serial dilutions of each compound was 10 μM or 100 μM. Control samples lacking compound, ROCK enzyme or ATP also were prepared and processed in parallel with compound test samples.
The reaction mixtures were incubated at room temperature for one hour. After one hour, the reaction was stopped by the addition of a 10 solution of an Europium-labelled phospho-CREB (Ser133) antibody (Perkin Elmer, Catalog #TRF0200) in LANCE buffer supplemented with 20 mM EDTA. The stopped reaction mixtures were incubated at room temperature for 90 minutes. […] The ICso value for each compound was determined from each dose-response curve using GraphPad Prism 7 software with a sigmodial dose response.
A general note: In TR-FRET formats the signal depends on donor and acceptor labels being close together.

Test [2] addresses T2, human ROCK2 enzyme kinase domain (Homo sapiens, UniProt O75116).
T2 construct: GST; purchased Carna BioSciences 01-110
Kind of test: fluorescence coupling (TR-FRET) enzymatic assay, ROCK2. Conditions: 4 nM enzyme, 50 nM Ulight-CREBTide, one hour room temperature. On the procedure: (§2) Dose-response curves for compounds of the present invention were determined using a fluorescence coupling enzymatic assay using purified C-terminal truncated human ROCK1 catalytic domain (amino acids 1-477 of accession number NP_005397.1) fused to GST (Carna BioSciences, Catalog #01-109) and purified C-terminal truncated human ROCK2 enzyme kinase domain (amino acids 1-553 of accession number NP_004841.2) fused to GST BioSciences, Catalog #01-110). In addition, full length cGMP-dependent protein kinase 1 (PKG or PRKG1; amino acids 1-686 of accession number NP_006249.1) fused to GST (Carna BioSciences, Catalog #01-142), full length PKACα (PRKACA; amino acids 1-351 of accession number NP_002721.1) fused to GST (Carna BioSciences, Catalog #01-127), and C-terminal truncated human AKT1 catalytic domain (amino acids 104-480 of accession number NP_005154.1) fused to GST Biosciences, Catalog #01-101) were used as a control to measure any non-desired off-target kinase activity.
as §1
(§3) A 4 μL aliquot of each serial dilution of test compound diluted in H2O with 2.5% DMSO was added to a well containing 4 μL of 10 nM purified N-truncated ROCK1 (4 nM final concentration), 10 nM purified N-truncated ROCK2 enzyme (4 nM final concentration), 1.25 nM AKT1 (0.5 nM final concentration), 25 pM PKACA (10 pM final concentration) or 20 nM PKG (8 nM final concentration), in reaction buffer containing 50 mM Hepes, pH 7.5, 1 mM EGTA, 10 mM MgCl2, 2 mM DTT, and 0.01% Tween 20 (final concentration). To initiate the enzymatic reaction, 2 μL of a solution was added to each well to provide a final concentration of 50 nM Ulight-CREBTide peptide substrate (Perkin Elmer, Catalog #TRF0107) and 4 μM ATP for ROCK1 and AKT1 assays, […] for ROCK2 assays and 30 μM ATP for PKG assays, or 1 μM ATP for PKACA assays. The reaction mixtures were incubated at room temperature for one hour. After one hour, the reaction was stopped by the addition of a 10 solution of an Europium-labelled phospho-CREB (Ser133) antibody (Perkin Elmer, Catalog #TRF0200) in LANCE buffer supplemented with 20 mM EDTA. The stopped reaction mixtures were incubated at room temperature for 90 minutes. The TR-FRET 665/620 ratios were determined using a Clariostar monochromator plate reader instrument (BMG LabTech) in accordance with the manufacturer's instructions. The ICso value for each compound was determined from each dose-response curve using GraphPad Prism 7 software with a sigmodial dose response. Key: A is IC50≤100 nM; B is 100 nM<IC50<1000 nM; C is 1,000<IC50≤10,000 nM; D is IC50>10,000 nM

The next test has as its target T3, PKACα (PRKACA) (Homo sapiens, UniProt P17612).
T3 construct: GST; purchased Carna BioSciences 01-127
As to the kind of experiment: fluorescence coupling (TR-FRET) enzymatic assay, PKACA off-target control. The note with it: 10 pM enzyme, 1 μM ATP, 50 nM Ulight-CREBTide, one hour room temperature. On the procedure:
as §2, §1, §3

In test [3] the target is T4, human AKT1 catalytic domain (Homo sapiens, UniProt P31749).
T4 construct: GST; purchased Carna BioSciences 01-101
T4 sequence (P31749 104-480): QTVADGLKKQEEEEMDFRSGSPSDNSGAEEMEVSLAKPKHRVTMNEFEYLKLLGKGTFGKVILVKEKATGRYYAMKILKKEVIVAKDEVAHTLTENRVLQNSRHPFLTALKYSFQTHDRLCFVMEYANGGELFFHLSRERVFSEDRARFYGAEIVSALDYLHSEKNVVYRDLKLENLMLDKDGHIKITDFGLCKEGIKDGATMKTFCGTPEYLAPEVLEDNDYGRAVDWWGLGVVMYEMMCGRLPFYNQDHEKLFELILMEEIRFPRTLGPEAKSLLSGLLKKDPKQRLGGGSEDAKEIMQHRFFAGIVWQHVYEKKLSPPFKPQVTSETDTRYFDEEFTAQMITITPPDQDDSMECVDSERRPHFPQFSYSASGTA
As to the kind of experiment: fluorescence coupling (TR-FRET) enzymatic assay, AKT1 off-target control. The note with it: 0.5 nM enzyme, 4 μM ATP, 50 nM Ulight-CREBTide, one hour room temperature. On the procedure: as §2, §1, §3

The target in test [4] is T5, cGMP-dependent protein kinase 1 (PKG or PRKG1) (Homo sapiens, UniProt Q13976).
T5 construct: GST; purchased Carna BioSciences 01-142
T5 sequence (Q13976 1-686 isoform Q13976-2): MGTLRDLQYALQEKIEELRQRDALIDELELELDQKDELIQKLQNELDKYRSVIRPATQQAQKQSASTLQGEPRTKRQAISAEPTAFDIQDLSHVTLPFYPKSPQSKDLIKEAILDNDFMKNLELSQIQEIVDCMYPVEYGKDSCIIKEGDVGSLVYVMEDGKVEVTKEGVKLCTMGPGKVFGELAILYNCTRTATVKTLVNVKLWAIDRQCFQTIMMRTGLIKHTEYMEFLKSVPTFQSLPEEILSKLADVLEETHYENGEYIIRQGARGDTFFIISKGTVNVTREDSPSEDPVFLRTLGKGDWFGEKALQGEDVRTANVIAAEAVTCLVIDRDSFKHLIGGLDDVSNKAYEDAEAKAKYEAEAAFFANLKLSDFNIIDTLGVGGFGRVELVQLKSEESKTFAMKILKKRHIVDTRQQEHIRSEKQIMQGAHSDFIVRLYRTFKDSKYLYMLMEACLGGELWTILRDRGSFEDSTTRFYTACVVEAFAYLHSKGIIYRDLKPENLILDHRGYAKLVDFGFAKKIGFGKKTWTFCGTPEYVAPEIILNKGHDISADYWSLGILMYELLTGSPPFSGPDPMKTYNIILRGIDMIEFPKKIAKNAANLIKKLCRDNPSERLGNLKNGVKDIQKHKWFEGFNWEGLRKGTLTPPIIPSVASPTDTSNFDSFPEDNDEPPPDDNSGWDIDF
Kind of test: fluorescence coupling (TR-FRET) enzymatic assay, PKG off-target control. Conditions: 8 nM enzyme, 30 μM ATP, 50 nM Ulight-CREBTide, one hour room temperature. On the procedure: as §2, §1, §3

T1 sequence (Q13464 1-477): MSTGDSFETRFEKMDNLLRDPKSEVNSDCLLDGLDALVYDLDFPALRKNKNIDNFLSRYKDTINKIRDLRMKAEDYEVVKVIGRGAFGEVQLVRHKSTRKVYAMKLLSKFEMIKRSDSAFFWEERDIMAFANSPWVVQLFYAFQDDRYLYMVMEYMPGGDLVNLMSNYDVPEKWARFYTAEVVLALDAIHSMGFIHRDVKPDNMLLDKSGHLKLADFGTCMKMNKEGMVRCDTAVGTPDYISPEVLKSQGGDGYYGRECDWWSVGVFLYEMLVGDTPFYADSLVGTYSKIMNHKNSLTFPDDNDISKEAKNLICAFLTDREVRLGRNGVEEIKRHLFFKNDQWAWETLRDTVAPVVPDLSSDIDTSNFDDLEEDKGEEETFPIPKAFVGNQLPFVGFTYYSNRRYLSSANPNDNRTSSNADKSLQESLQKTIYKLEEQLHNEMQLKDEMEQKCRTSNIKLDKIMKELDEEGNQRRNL
T2 sequence (O75116 1-553): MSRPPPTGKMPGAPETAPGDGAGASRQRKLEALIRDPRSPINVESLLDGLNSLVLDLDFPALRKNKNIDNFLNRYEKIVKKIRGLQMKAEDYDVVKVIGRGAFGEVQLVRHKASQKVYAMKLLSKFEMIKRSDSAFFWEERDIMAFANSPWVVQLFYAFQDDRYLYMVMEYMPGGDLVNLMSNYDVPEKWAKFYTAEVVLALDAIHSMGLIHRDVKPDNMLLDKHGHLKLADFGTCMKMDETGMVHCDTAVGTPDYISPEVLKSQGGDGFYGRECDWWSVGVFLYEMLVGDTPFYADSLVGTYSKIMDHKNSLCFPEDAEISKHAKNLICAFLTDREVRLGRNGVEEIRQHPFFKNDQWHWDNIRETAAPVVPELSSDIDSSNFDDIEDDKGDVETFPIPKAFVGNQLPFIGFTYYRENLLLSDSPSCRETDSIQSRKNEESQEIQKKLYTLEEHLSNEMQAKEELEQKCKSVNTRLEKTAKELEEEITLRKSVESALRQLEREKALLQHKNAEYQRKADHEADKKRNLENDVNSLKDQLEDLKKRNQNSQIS

Usually IC50 stands for the concentration that inhibits the measured activity by half. As to `CC1(C)CN(S(=O)(=O)c2cccc3c(=O)[nH]ccc23)c2ccccc21` [Example 12, 5-((3,3-Dimethylindolin-1-yl)sulfonyl)isoquinolin-1 (2H)-one], the IC50 (in test [1]; in test [2]; against PKACα (PRKACA); in test [3]; in test [4]) was more than 10 µM each time.
In the case of `CC1CN(S(=O)(=O)c2cccc3c(=O)[nH]ccc23)c2ccccc21` (stereo not shown) [Example 13, 5-((3-Methylindolin-1-yl)sulfonyl)isoquinolin-1 (2H)-one], the IC50 (in test [1]; in test [2]; at PKACα (PRKACA); in test [3]; in test [4]) was more than 10 µM in each case.
Consider `CC(C)c1cccc2c1CCN2S(=O)(=O)c1cccc2c(=O)[nH]ccc12` [Example 14, 5-((4-Isopropylindolin-1-yl)sulfonyl)isoquinolin-1 (2H)-one], for which the concentration for half-maximal inhibition (IC50) (in test [1]; in test [2]; at PKACα (PRKACA); in test [3]; in test [4]) was more than 10 µM each time.
Take `N#Cc1ccc2c(c1)N(S(=O)(=O)c1cccc3c(=O)[nH]ccc13)CC2` [Example 15, 1-((1-Oxo-1,2-dihydroisoquinolin-5-yl)sulfonyl)indoline-6-carbonitrile]: the IC50 in test [1] is 0.1 to 1 µM; in test [2] it was less than 0.1 µM; against PKACα (PRKACA), more than 10 µM; in test [3] it was more than 10 µM; in test [4], more than 10 µM.
Turning to `O=c1[nH]ccc2c(S(=O)(=O)N3CCc4c(Cl)cc(Cl)cc43)cccc12` [Example 16, 5-((4,6-Dichloroindolin-1-yl)sulfonyl)isoquinolin-1 (2H)-one], the IC50 was 1 to 10 µM in test [1]; 1 to 10 µM in test [2]; more than 10 µM against PKACα (PRKACA); more than 10 µM in test [3]; more than 10 µM in test [4].
For `N#Cc1cc(C2CC2)c2c(c1)N(S(=O)(=O)c1cccc3c(=O)[nH]ccc13)CC2` [Example 17], the half-inhibitory concentration (IC50) in test [1] was 0.1 to 1 µM; in test [2], 0.1 to 1 µM; on PKACα (PRKACA) it was more than 10 µM; in test [3], more than 10 µM; in test [4] it was more than 10 µM.
Consider `Cc1cc(C#N)cc2c1CCN2S(=O)(=O)c1cccc2c(=O)[nH]ccc12` [Example 18], for which the IC50 is 0.1 to 1 µM in test [1]; 0.1 to 1 µM in test [2]; more than 10 µM on PKACα (PRKACA); more than 10 µM in test [3]; more than 10 µM in test [4].
As for `O=c1[nH]ccc2c(S(=O)(=O)N3CCc4ccc(Cl)cc43)cc(Cl)cc12` [Example 19, 7-Chloro-5-((6-chloroindolin-1-yl)sulfonyl)isoquinolin-1 (2H)-one], the IC50 (in test [1]; in test [2]; at PKACα (PRKACA); in test [3]; in test [4]) was more than 10 µM each time.
Regarding `N#Cc1ccc2c(c1)N(S(=O)(=O)c1cc(Cl)cc3c(=O)[nH]ccc13)CC2` [Example 20, 1-((7-Chloro-1-oxo-1,2-dihydroisoquinolin-5-yl)sulfonyl)indoline-6-carbonitrile], the half-inhibitory concentration (IC50) (in test [1]; in test [2]; at PKACα (PRKACA); in test [3]; in test [4]) was more than 10 µM in each case.
Consider `O=S(=O)(c1cccc2c(O)ncc(F)c12)N1CCc2ccc(Cl)cc21` [Example 21, 5-((6-Chloroindolin-1-yl)sulfonyl)-4-fluoroisoquinolin-1-ol], for which the IC50 (in test [1]; in test [2]; against PKACα (PRKACA); in test [3]; in test [4]) was more than 10 µM each time.
For `Cc1cnc(O)c2cccc(S(=O)(=O)N3CCc4ccc(C#N)cc43)c12` [Example 22, 1-((1-Hydroxy-4-methylisoquinolin-5-yl)sulfonyl)indoline-6-carbonitrile], the concentration for half-maximal inhibition (IC50) in test [1] was less than 0.1 µM; in test [2], less than 0.1 µM; against PKACα (PRKACA), 1 to 10 µM; in test [3], more than 10 µM; in test [4], more than 10 µM.
